This is an account of results in US8957093B2, “N-biphenylmethylindole modulators of PPARG” (The Scripps Research Institute, priority 2011, dated 2015).

Molecules are shown by their SMILES.

Chain of GST-PPARG-LBD (P37231 238-503): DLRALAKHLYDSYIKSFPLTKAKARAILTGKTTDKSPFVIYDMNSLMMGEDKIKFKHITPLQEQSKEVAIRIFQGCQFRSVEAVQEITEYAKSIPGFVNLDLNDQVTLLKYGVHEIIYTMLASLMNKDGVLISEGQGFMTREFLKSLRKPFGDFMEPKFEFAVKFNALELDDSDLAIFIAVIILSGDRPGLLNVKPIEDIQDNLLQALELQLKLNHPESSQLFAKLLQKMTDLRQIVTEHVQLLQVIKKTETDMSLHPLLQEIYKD

The target in the first experiment is Gal-4-PPAR (human PPAR LBD fused to GAL4 DNA-binding domain) (Homo sapiens (Human), UniProt P37231). In words: GAL4-PPARG LBD / UAS-luciferase transactivation assay in HEK 293T cells. The class given is cell-based. As to conditions: GAL4 transactivation, HEK 293T cells; NA = not active; read-out: EC50 (nM) GAL4.
Chain of Gal-4-PPAR (human PPAR LBD fused to GAL4 DNA-binding domain) (P37231 238-503): as above
Consider `Cc1c(C)n(Cc2ccc(-c3ccccc3C(=O)O)cc2)c2ccc(C(=O)N[C@H](C)c3c(Cl)cccc3Cl)cc12` [Example 141, (R)-4′-((5-((1-(2,6-dichlorophenyl)ethyl)carbamoyl)-2,3-dimethyl-1H-indol-1-yl)methyl)-[1,1′-biphenyl]-2-carboxylic acid], for which the EC50 stood at 529 nM.

Still in this experiment, the particulars now being: HEK-293T, 18 h; read-out: % transactivation at 10 μM (GAL4).
For `Cc1c(C)n(Cc2ccc(-c3ccccc3C(=O)O)cc2)c2ccc(C(=O)N[C@H](C)c3c(Cl)cccc3Cl)cc12` [Example 141, (R)-4′-((5-((1-(2,6-dichlorophenyl)ethyl)carbamoyl)-2,3-dimethyl-1H-indol-1-yl)methyl)-[1,1′-biphenyl]-2-carboxylic acid], the activation at 10 µM was found to be 20%.

For a further experiment, the target named is GST-PPARG-LBD (Homo sapiens (Human), UniProt P37231). Briefly: Lanthascreen PPARG competitive binding assay (Invitrogen, TR-FRET). As to conditions: Lanthascreen PPARG competitive binding; inc = incomplete curve; NA = not active. As to the method:
Lanthascreen PPARG Competitive Binding Assay (Invitrogen)
The assay was performed according to manufacturer protocol. A mixture of […], 5 nM Tb-GST-antibody, 5 nM Fluormone Pan-PPAR Green, and serial dilutions of the experimental compound, beginning at 10 μM downwards, was added to wells of black 384-well low-volume plates (Greiner) to a total volume of 18 μL. All dilutions were made in TR-FRET assay buffer C. DMSO at 2% final concentration was used as a no-ligand control. Experiment was performed in triplicate, and incubated for 2 hours in the dark prior to assay read in Perkin Elmer ViewLux ultra HTS microplate reader. FRET signal was measured by excitation at 340 nm and emission at 520 nm for fluorescein and 490 nm for terbium. Fold change over DMSO was calculated using GraphPad Prism Software (La Jolla, Calif.) by calculating 520 nm/490 nm ratio. Graphs were plotted as fold change of FRET signal for compound treatment over DMSO-only control.
Take `Cc1c(C)n(Cc2ccc(-c3ccccc3C#N)cc2)c2ccc(C(=O)N[C@@H](C)c3ccc(OC(F)(F)F)cc3)cc12` [Example 279, (S)-1-((2′-cyano-[1,1′-biphenyl]-4-yl)methyl)-2,3-dimethyl-N-(1-(4-(trifluoromethoxy)phenyl)ethyl)-1H-indole-5-carboxamide]: the “IC50 (nM) Lantha” value is “inc”.

Take `CCOc1cccc([C@H](C)NC(=O)c2ccc3c(c2)c(C)c(C)n3Cc2ccc(-c3ccccc3C#N)cc2)c1` [Example 280, (S)-1-((2′-cyano-[1,1′-biphenyl]-4-yl)methyl)-N-(1-(3-ethoxyphenyl)ethyl)-2,3-dimethyl-1H-indole-5-carboxamide]: the “IC50 (nM) Lantha” value is “inc”. Same read-out and setting: the result for `Cc1c(C)n(Cc2ccc(-c3ccccc3C#N)cc2)c2ccc(C(=O)N[C@@H](C)c3cccc(Cl)c3)cc12` [Example 281, (S)—N-(1-(3-chlorophenyl)ethyl)-1-((2′-cyano-[1,1′-biphenyl]-4-yl)methyl)-2,3-dimethyl-1H-indole-5-carboxamide] reads “inc”. For the compound `Cc1c(C)n(Cc2ccc(-c3ccccc3C#N)cc2)c2ccc(C(=O)N[C@@H](C)c3cccc(C(F)(F)F)c3)cc12` [Example 282, (S)-1-((2′-cyano-[1,1′-biphenyl]-4-yl)methyl)-2,3-dimethyl-N-(1-(3-(trifluoromethyl)phenyl)ethyl)-1H-indole-5-carboxamide], the “IC50 (nM) Lantha” value is on record as “inc”.

Regarding `Cc1c(C)n(Cc2ccc(-c3ccccc3C#N)cc2)c2ccc(C(=O)N[C@@H](C)c3ccc(Cl)cc3)cc12` [Example 283, (S)—N-(1-(4-chlorophenyl)ethyl)-1-((2′-cyano-[1,1′-biphenyl]-4-yl)methyl)-2,3-dimethyl-1H-indole-5-carboxamide], the “IC50 (nM) Lantha” value was “inc”. Consider `Cc1c(C)n(Cc2ccc(-c3ccccc3C#N)cc2)c2ccc(C(=O)N[C@@H](C)c3cccc(Br)c3)cc12` [Example 284, (S)—N-(1-(3-bromophenyl)ethyl)-1-((2′-cyano-[1,1′-biphenyl]-4-yl)methyl)-2,3-dimethyl-1H-indole-5-carboxamide], for which the “IC50 (nM) Lantha” value was “inc”. In the case of `COc1ccc([C@H](C)NC(=O)c2ccc3c(c2)c(C)c(C)n3Cc2ccc(-c3ccccc3C#N)cc2)cc1` [Example 285, (S)-1-((2′-cyano-[1,1′-biphenyl]-4-yl)methyl)-N-(1-(4-methoxyphenyl)ethyl)-2,3-dimethyl-1H-indole-5-carboxamide], the “IC50 (nM) Lantha” value is “inc”.

With `Cc1c(C)n(Cc2ccc(-c3ccccc3C#N)cc2)c2ccc(C(=O)N[C@@H](C)c3ccc(F)cc3F)cc12` [Example 286, (S)-1-((2′-cyano-[1,1′-biphenyl]-4-yl)methyl)-N-(1-(2,4-difluorophenyl)ethyl)-2,3-dimethyl-1H-indole-5-carboxamide], the “IC50 (nM) Lantha” value is reported as “inc”. Consider `Cc1c(C)n(Cc2ccc(-c3ccccc3C#N)cc2)c2ccc(C(=O)N[C@@H](C)c3ccccc3Cl)cc12` [Example 287, (S)—N-(1-(2-chlorophenyl)ethyl)-1-((2′-cyano-[1,1′-biphenyl]-4-yl)methyl)-2,3-dimethyl-1H-indole-5-carboxamide], for which the “IC50 (nM) Lantha” value is reported as “inc”.

As to `Cc1ccc([C@H](C)NC(=O)c2ccc3c(c2)c(C)c(C)n3Cc2ccc(-c3ccccc3C#N)cc2)cc1` [Example 288, (S)-1-((2′-cyano-[1,1′-biphenyl]-4-yl)methyl)-2,3-dimethyl-N-(1-(p-tolyl)ethyl)-1H-indole-5-carboxamide], the “IC50 (nM) Lantha” value is “inc”.

Regarding `CCc1ccc([C@H](C)NC(=O)c2ccc3c(c2)c(C)c(C)n3Cc2ccc(-c3ccccc3C#N)cc2)cc1` [Example 289, (S)-1-((2′-cyano-[1,1′-biphenyl]-4-yl)methyl)-N-(1-(4-ethylphenyl)ethyl)-2,3-dimethyl-1H-indole-5-carboxamide], the “IC50 (nM) Lantha” value is listed as “inc”. As for `Cc1c(C)n(Cc2ccc(-c3ccccc3C#N)cc2)c2ccc(C(=O)N[C@@H](C)c3ccc(Cl)c(Cl)c3)cc12` [Example 290, (S)-1-((2′-cyano-[1,1′-biphenyl]-4-yl)methyl)-N-(1-(3,4-dichlorophenyl)ethyl)-2,3-dimethyl-1H-indole-5-carboxamide], the “IC50 (nM) Lantha” value is given as “inc”. In the case of `Cc1c(C)n(Cc2ccc(-c3ccccc3C#N)cc2)c2ccc(C(=O)N[C@@H](C)c3ccccc3)cc12` [Example 291, (S)-1-((2′-cyano-[1,1′-biphenyl]-4-yl)methyl)-2,3-dimethyl-N-(1-phenylethyl)-1H-indole-5-carboxamide], the “IC50 (nM) Lantha” value is recorded as “inc”.

For the compound `COc1ccccc1[C@H](C)NC(=O)c1ccc2c(c1)c(C)c(C)n2Cc1ccc(-c2ccccc2C#N)cc1` [Example 292, (S)-1-((2′-cyano-[1,1′-biphenyl]-4-yl)methyl)-N-(1-(2-methoxyphenyl)ethyl)-2,3-dimethyl-1H-indole-5-carboxamide], the “IC50 (nM) Lantha” value is “inc”.

As for `Cc1c(C)n(Cc2ccc(-c3ccccc3C#N)cc2)c2ccc(C(=O)N[C@@H](C)c3cccc(F)c3)cc12` [Example 293, (S)-1-((2′-cyano-[1,1′-biphenyl]-4-yl)methyl)-N-(1-(3-fluorophenyl)ethyl)-2,3-dimethyl-1H-indole-5-carboxamide], the “IC50 (nM) Lantha” value was “inc”.

The same experiment, now with this note: Lanthascreen PPARG competitive binding; inc = incomplete curve; NA = not active; read-out: IC50 (nM) Lantha.
In the case of `Cc1c(C)n(Cc2ccc(-c3ccccc3C(=O)NC3CC3)cc2)c2ccc(C(=O)N[C@@H](C)c3cccc(C(C)C)c3)cc12` [Example 305, (S)-1-((2′-(Cyclopropylcarbamoyl)-[1,1′-biphenyl]-4-yl)methyl)-N-(1-(3-isopropylphenyl)ethyl)-2,3-dimethyl-1H-indole-5-carboxamide], the IC50 is 94 nM. `Cc1c(C)n(Cc2ccc(-c3ccccc3C(=O)N3CC[C@H](O)C3)cc2)c2ccc(C(=O)N[C@@H](C)c3cccc(C(C)C)c3)cc12` [Example 306, 1-((2′-((S)-3-Hydroxypyrrolidine-1-carbonyl)-[1,1′-biphenyl]-4-yl)methyl)-N-((S)-1-(3-isopropylphenyl)ethyl)-2,3-dimethyl-1H-indole-5-carboxamide]: the half-inhibitory concentration (IC50) is above 500 nM.

Turning to `Cc1c(C)n(Cc2ccc(-c3ccccc3C(=O)NCCO)cc2)c2ccc(C(=O)N[C@@H](C)c3cccc(C(C)C)c3)cc12` [Example 307, (S)-1-((2′-((2-Hydroxyethyl)carbamoyl)-[1,1′-biphenyl]-4-yl)methyl)-N-(1-(3-isopropylphenyl)ethyl)-2,3-dimethyl-1H-indole-5-carboxamide], the IC50 worked out at 600 nM. Still for that read-out and setting: the value for `Cc1c(C)n(Cc2ccc(-c3ccccc3C(=O)NC[C@@H](O)C(=O)N(C)C)cc2)c2ccc(C(=O)N[C@@H](C)c3cccc(C(C)C)c3)cc12` [Example 309, 1-((2′-(((R)-3-(Dimethylamino)-2-hydroxy-3-oxopropyl)carbamoyl)-[1,1′-biphenyl]-4-yl)methyl)-N-((S)-1-(3-isopropylphenyl)ethyl)-2,3-dimethyl-1H-indole-5-carboxamide] was above 1000 nM. For the compound `Cc1c(C)n(Cc2ccc(-c3ccccc3C(=O)NCCN(C)C)cc2)c2ccc(C(=O)N[C@@H](C)c3cccc(C(C)C)c3)cc12` [Example 310, (S)-1-((2′-((2-(Dimethylamino)ethyl)carbamoyl)-[1,1′-biphenyl]-4-yl)methyl)-N-(1-(3-isopropylphenyl)ethyl)-2,3-dimethyl-1H-indole-5-carboxamide], the IC50 is above 1000 nM.

Staying with this experiment, now noted: Lanthascreen competitive binding; NA = not active; inc = incomplete curve; read-out: IC50 (nM) Lantha.
On to `Cc1c(C)n(Cc2ccc(-c3ccccc3C(=O)O)cc2)c2ccc(C(=O)N[C@H](C)c3c(Cl)cccc3Cl)cc12` [Example 141, (R)-4′-((5-((1-(2,6-dichlorophenyl)ethyl)carbamoyl)-2,3-dimethyl-1H-indol-1-yl)methyl)-[1,1′-biphenyl]-2-carboxylic acid], for which the IC50 came to 30 nM. Take `Cc1c(C)n(Cc2ccc(-c3ccccc3C(=O)O)cc2)c2ccc(C(=O)N(C)Cc3ccccc3)cc12` [compound 3, 4′-((5-(Benzyl(methyl)carbamoyl)-2,3-dimethyl-1H-indol-1-yl)methyl)biphenyl-2-carboxylic acid]: the IC50 was determined as 206 nM. As to `COc1cc(CNC(=O)c2ccc3c(c2)c(C)c(C)n3Cc2ccc(-c3ccccc3C(=O)O)cc2)cc(OC)c1` [compound 22, 4′-((5-(3,5-Dimethoxybenzylcarbamoyl)-2,3-dimethyl-1H-indol-1-yl)methyl)biphenyl-2-carboxylic acid], the IC50 amounted to 10 nM. On to `Cc1c(C)n(Cc2ccc(-c3ccccc3C(=O)O)cc2)c2ccc(C(=O)N[C@@H](C)c3ccc4ccccc4c3)cc12` [compound 26, (S)-4′-((2,3-Dimethyl-5-((1-(naphthalen-2-yl)ethyl)carbamoyl)-1H-indol-1-yl)methyl)-[1,1′-biphenyl]-2-carboxylic acid], for which the IC50 was above 1000 nM. With `Cc1c(C)n(Cc2ccc(-c3ccccc3C(=O)O)cc2)c2ccc(C(=O)NCC(=O)c3ccccc3)cc12` [compound 31, 4′-((2,3-Dimethyl-5-((2-oxo-2-phenylethyl)carbamoyl)-1H-indol-1-yl)methyl)-[1,1′-biphenyl]-2-carboxylic acid], the IC50 turned out to be 244 nM.
